# Reference: patent US20220000911A1, “COMBINATION OF GOLD COMPLEXES WITH OLAPARIB OR OTHER PARP1/2 INHIBITORS FOR USE IN THE TREATMENT OF CANCER RESISTANT TO SAID PARP1/2 INHIBITORS” (Varsity Pharmaceuticals Limited, priority 2020, published 2022)
# Columns and labels:
# Type in all cases: cell-based
# [1] = system: wildtype A2780 ovarian cancer cells; assay: CellTiter Glo proliferation inhibition, wild-type A2780 cells
# Method: The A2780 cell line is an ovarian cancer cell line that was established from an ovarian endometroid adenocarcinoma tumour. […] It is commonly used as a model to observe the effects of, and test the potency of various chemicals, methods of delivery and treatments for ovarian cancer. […] The cells were diluted with culture medium and 40 μL of cell suspension (1000 cells/well) was added into each well of a 384-well cell culture plate. The plate was covered with a lid and left at room temperature without shaking for 30 minutes. The plate was then transferred to an incubator at 37° C. and 5% CO2 and left overnight. Test compounds were dissolved at a concentration of 30 mM in DMSO to create a stock solution. 45 μL of the stock solution was transferred to a 384 pp-plate. […] The plate was then spun at room temperature at 1,000 RPM for 1 minute. 40 nL of the diluted compound was then transferred from the compound source plate into the cell plate. The cell plate was then covered with a lid and placed in an incubator at 37° C. and 5% CO2 and left for 120 hours. 72 hours after treatment with the compound detection was conducted as discussed below. CellTiter Glo® reagents were thawed and equilibrated to room temperature. The cell plate was then removed from the incubator and equilibrated at room temperature for 15 minutes. 30 μL of the CellTiter Glo® reagents were then added into each well (at 1:1 to culture medium). The contents was mixed for 2 minutes on an orbital shaker to induce cell lysis and then the plates were allowed to incubate at room temperature for 30 minutes. Luminescence was then measured on an Envision reader (Perkin Elmer). The inhibition activity was calculated using the following formula: […]
# [2] = system: olaparib resistant HCC1937 triple negative breast cancer cells; assay: Proliferation inhibition of olaparib resistant HCC1937 cells, single agents
# Method: (§1) The cells were harvested from a flask into cell culture medium (RPMI 1640 Medium with 10% FBS) and then counted. The cells were diluted with culture medium and 40 μL of cell suspension (1000 cells/well) was added into each well of a 384-well cell culture plate. The plate was covered with a lid and left at room temperature without shaking for 30 minutes. The plate was then transferred to an incubator at 37° C. and 5% CO2 and left overnight.
# (§2) Test compounds were dissolved at a concentration of 30 mM in DMSO to create a stock solution. 45 μL of the stock solution was transferred to a 384 pp-plate. A 3-fold, 10-point dilution was performed by transferring 15 μL of the compound solution into 30 μL DMSO by using TECAN (EVO200) liquid handler. The plate was then spun at room temperature at 1,000 RPM for 1 minute. 40 nL of the diluted compound was then transferred from the compound source plate into the cell plate. The cell plate was then covered with a lid and placed in an incubator at 37° C. and 5% CO2 and left for 120 hours. 72 hours after treatment with the compound detection was conducted as discussed below.
# (§3) CellTiter Glo® reagents were thawed and equilibrated to room temperature. The cell plate was then removed from the incubator and equilibrated at room temperature for 15 minutes. 30 μL of the CellTiter Glo® reagents were then added into each well (at 1:1 to culture medium). The contents was mixed for 2 minutes on an orbital shaker to induce cell lysis and then the plates were allowed to incubate at room temperature for 30 minutes. Luminescence was then measured on an Envision reader (Perkin Elmer).
# (§4) Inhibition (%)=100×(Lumvehicle−Lumsample)/(Lumvehicle−Lumblank),
# The methods were as described in examples 1 and 2, except the HCC1937 cell line was used.
# The HCC1937 cell line was established from a primary breast carcinoma from a patient with a germ-line BRCA1 mutation. It is an example of a triple-negative breast cancer (TNBC) cell line. Breast cancer patients routinely have the expression of estrogen receptor (ER), progesterone receptor (PR), and amplification of HER-2/Neu evaluated. […] The latter group is referred to as triple-negative breast cancer based on the lack of these three molecular markers. TNBC represents approximately 10-15% of all breast cancers and patients with TNBC have a poor outcome compared to the other subtypes of breast cancer.
# [3] = system: olaparib resistant A2780 ovarian cancer cells; assay: CellTiter Glo proliferation inhibition, olaparib resistant A2780 cells, single agents
# Method: A2780 ovarian cancer cells (wild-type “WT”) were cultured in RPMI 1640 Medium with 10% Fetal Bovine Serum (FBS).
# To obtain cells resistant to olaparib, the cells were cultured in cell culture medium (RPMI 1640 Medium with 10% FBS) supplemented with 20 μM olaparib for one month in order to generate A2780 cells resistant to olaparib (“R”). After a month the cells were continuously cultured in the cell culture medium (RPMI 1640 Medium with 10% FBS) supplemented with 10 μM olaparib prior to use and for up to two months to maintain the resistance.
# as §1
# as §2, with “A 3-fold, 10-point dilution was performed by transferring 15 μL of the compound solution into 30 μL DMSO by using TECAN (EVO200) liquid handler.” left out
# as §3
# The inhibition activity was calculated using the following formula:
# as §4
# where Lumvehicle is the luminescence of cells treated with 0.1% DMSO and Lumblank is cells in the culture medium.
# The IC50 was calculated by fitting the curve using Xlfit (v5.3.1.3), equation 201: […]
# [4] = concentration range 0.06 nM to 30,000 nM
smiles,measurement,setting,value
"O=C(c1cc(Cc2n[nH]c(=O)c3ccccc23)ccc1F)N1CCN(C(=O)C2CC2)CC1 [Olaparib, olaparib]",IC50,"[1]; Homo sapiens, A2780",3.89 µM
same,inhibition at 0.00152 µM,"[1]; Homo sapiens, wildtype A2780, test conc. 1.52 nM, read-out: Mean Inhibition (n = 3)",0.36%
same,inhibition at 0.00457 µM,"[1]; Homo sapiens, wildtype A2780, test conc. 4.57 nM, read-out: Mean Inhibition (n = 3)",1.77%
same,inhibition at 0.01372 µM,"[1]; Homo sapiens, wildtype A2780, test conc. 13.72 nM, read-out: Mean Inhibition (n = 3)",2.98%
same,inhibition at 0.04115 µM,"[1]; Homo sapiens, wildtype A2780, test conc. 41.15 nM, read-out: Mean Inhibition (n = 3)",5%
same,inhibition at 0.12346 µM,"[1]; Homo sapiens, wildtype A2780, test conc. 123.46 nM, read-out: Mean Inhibition (n = 3)",12.5%
same,inhibition at 0.37037 µM,"[1]; Homo sapiens, wildtype A2780, test conc. 370.37 nM, read-out: Mean Inhibition (n = 3)",11.9%
same,inhibition at 10 µM,"[1]; Homo sapiens, wildtype A2780, test conc. 10,000 nM, read-out: Mean Inhibition (n = 3)",62.7%
same,inhibition at 30 µM,"[1]; Homo sapiens, wildtype A2780, test conc. 30,000 nM, read-out: Mean Inhibition (n = 3)",70.8%
same,Maximum inhibition observed in wild-type A2780 cells,[1]; [4],72%
same,Mean Inhibition (n = 3),"[1]; wildtype A2780, test conc. 1,111.11 nM",24.63%
same,Mean Inhibition (n = 3),"[1]; wildtype A2780, test conc. 3,333.33 nM",39.88%
same,inhibition at 0.00152 µM,"[2]; test conc. 1.52 nM, read-out: Mean Inhibition (n = 3)",-6.55%
same,inhibition at 0.00457 µM,"[2]; test conc. 4.57 nM, read-out: Mean Inhibition (n = 3)",-1.82%
same,inhibition at 0.01372 µM,"[2]; test conc. 13.72 nM, read-out: Mean Inhibition (n = 3)",-3.47%
same,inhibition at 0.04115 µM,"[2]; test conc. 41.15 nM, read-out: Mean Inhibition (n = 3)",-0.93%
same,inhibition at 0.12346 µM,"[2]; test conc. 123.46 nM, read-out: Mean Inhibition (n = 3)",1.32%
same,inhibition at 0.37037 µM,"[2]; test conc. 370.37 nM, read-out: Mean Inhibition (n = 3)",4.41%
same,Mean Inhibition (n = 3),"[2]; test conc. 1,111.11 nM",3.09%
same,Mean Inhibition (n = 3),"[2]; test conc. 3,333.33 nM",4.90%
same,inhibition at 10 µM,"[2]; test conc. 10,000 nM, read-out: Mean Inhibition (n = 3)",17%
same,inhibition at 30 µM,"[2]; test conc. 30,000 nM, read-out: Mean Inhibition (n = 3)",11.8%
same,IC50,"[3]; Homo sapiens, A2780",> 30 µM
same,inhibition at 0.00152 µM,"[3]; Homo sapiens, olaparib resistant A2780, test conc. 1.52 nM, read-out: Mean Inhibition (n = 3)",1.01%
same,inhibition at 0.00457 µM,"[3]; Homo sapiens, olaparib resistant A2780, test conc. 4.57 nM, read-out: Mean Inhibition (n = 3)",2.74%
same,inhibition at 0.01372 µM,"[3]; Homo sapiens, olaparib resistant A2780, test conc. 13.72 nM, read-out: Mean Inhibition (n = 3)",1.78%
same,inhibition at 0.04115 µM,"[3]; Homo sapiens, olaparib resistant A2780, test conc. 41.15 nM, read-out: Mean Inhibition (n = 3)",1.43%
same,inhibition at 0.12346 µM,"[3]; Homo sapiens, olaparib resistant A2780, test conc. 123.46 nM, read-out: Mean Inhibition (n = 3)",5.53%
same,inhibition at 0.37037 µM,"[3]; Homo sapiens, olaparib resistant A2780, test conc. 370.37 nM, read-out: Mean Inhibition (n = 3)",5.11%
same,inhibition at 10 µM,"[3]; Homo sapiens, olaparib resistant A2780, test conc. 10,000 nM, read-out: Mean Inhibition (n = 3)",9.9%
same,inhibition at 30 µM,"[3]; Homo sapiens, olaparib resistant A2780, test conc. 30,000 nM, read-out: Mean Inhibition (n = 3)",16.2%
same,Maximum inhibition observed in olaparib resistant A2780 cells,[3]; [4],23%
same,Mean Inhibition (n = 3),"[3]; olaparib resistant A2780, test conc. 1,111.11 nM",2.24%
same,Mean Inhibition (n = 3),"[3]; olaparib resistant A2780, test conc. 3,333.33 nM",6.97%
